Measurements taken from ChEMBL document CHEMBL4334464, “From Phenylthiazoles to Phenylpyrazoles: Broadening the Antibacterial Spectrum toward Carbapenem-Resistant Bacteria” (J Med Chem, 2019).
In brackets after ≈: the same amount, converted by molar mass. Activity calls are given as the source filed them. The calls are words filed in the database; no cut-off is given here.

Test system: Acinetobacter baumannii
Experiment: Ratio of MBC to MIC for Acinetobacter baumannii ATCC BAA 1747 clinical isolates
Type: functional
Conditions: not given

SMILES | Ratio
C/C(=N\NC(=N)N)c1cnn(-c2ccc(C#CC3CCCC3)cc2)c1C | >=1

Test system: not listed separately
Experiment: Antibacterial activity against Enterobacter cloacae subsp. cloacae ATCC BAA-1143 clinical isolates after 18 to 20 hrs in aerobic condition by CLSI-based broth microdilution assay
Type: functional
Conditions: not given

SMILES | MIC [µg/mL]
C/C(=N\NC(=N)N)c1cnn(-c2ccc(C#CC3CCCC3)cc2)c1C | 8 (≈ 23 µM)

Test system: Staphylococcus aureus
Experiment: Antibacterial activity against linezolid-resistant/Methicillin-resistant Staphylococcus aureus NRS119 clinical isolates after 18 to 20 hrs in aerobic condition by CLSI protocol based broth microdilution assay
Type: functional
Conditions: not given

SMILES | MIC [µg/mL]
C/C(=N\NC(=N)N)c1cnn(-c2ccc(C#CC3CCCC3)cc2)c1C | 1 (≈ 2.87 µM)

Test system: Staphylococcus aureus
Experiment: Antibacterial activity against vancomycin-resistant Staphylococcus aureus isolate 12 after 18 to 20 hrs in aerobic condition by CLSI-based broth microdilution assay
Type: functional
Conditions: not given

SMILES | MIC [µg/mL]
C/C(=N\NC(=N)N)c1cnn(-c2ccc(C#CC3CCCC3)cc2)c1C | 1 (≈ 2.87 µM)

Test system: Staphylococcus aureus
Experiment: Ratio of MBC to MIC for Methicillin-sensitive Staphylococcus aureus ATCC 6538 clinical isolates
Type: functional
Conditions: not given

SMILES | Ratio
C/C(=N\NC(=N)N)c1cnn(-c2ccc(C#CC3CCCC3)cc2)c1C | <=2

Test system: Pseudomonas aeruginosa
Experiment: Ratio of MBC to MIC for Pseudomonas aeruginosa ATCC 15442 clinical isolates
Type: functional
Conditions: not given

SMILES | Ratio
C/C(=N\NC(=N)N)c1cnn(-c2ccc(C#CC3CCCC3)cc2)c1C | >=1

Test system: Enterococcus faecium
Experiment: Antibacterial activity against vancomycin-resistant Enterococcus faecium ATCC 700221 clinical isolates after 18 to 20 hrs in aerobic condition by CLSI-based broth microdilution assay
Type: functional
Conditions: not given

SMILES | MIC [µg/mL]
C/C(=N\NC(=N)N)c1cnn(-c2ccc(C#CC3CCCC3)cc2)c1C | 1 (≈ 2.87 µM)

Test system: Klebsiella pneumoniae
Experiment: Ratio of MBC to MIC for Klebsiella pneumoniae BAA-1144 clinical isolates
Type: functional
Conditions: not given

SMILES | Ratio
C/C(=N\NC(=N)N)c1cnn(-c2ccc(C#CC3CCCC3)cc2)c1C | >=1

Test system: Escherichia coli
Experiment: Antibacterial activity against carbapenem-resistant Escherichia coli BAA-2452 clinical isolates after 18 to 20 hrs in aerobic condition by CLSI-based broth microdilution assay
Type: functional
Conditions: not given

SMILES | MIC [µg/mL]
C/C(=N\NC(=N)N)c1cnn(-c2ccc(C#CC3CCCC3)cc2)c1C | 4 (≈ 11.5 µM)

Test system: Shigella flexneri
Experiment: Ratio of MBC to MIC for Shigella flexneri ATCC 9199 clinical isolates
Type: functional
Conditions: not given

SMILES | Ratio
C/C(=N\NC(=N)N)c1cnn(-c2ccc(C#CC3CCCC3)cc2)c1C | >=1

Test system: Staphylococcus aureus
Experiment: Antibacterial activity against Methicillin-resistant Staphylococcus aureus USA700-NRS386 clinical isolates after 18 to 20 hrs in aerobic condition by CLSI protocol based broth microdilution assay
Type: functional
Conditions: not given

SMILES | MIC [µg/mL]
C/C(=N\NC(=N)N)c1cnn(-c2ccc(C#CC3CCCC3)cc2)c1C | 1 (≈ 2.87 µM)

Test system: Staphylococcus aureus
Experiment: Antibacterial activity against Methicillin-sensitive Staphylococcus aureus ATCC 6538 clinical isolates after 18 to 20 hrs in aerobic condition by CLSI protocol based broth microdilution assay
Type: functional
Conditions: not given

SMILES | MIC [µg/mL]
C/C(=N\NC(=N)N)c1cnn(-c2ccc(C#CC3CCCC3)cc2)c1C | 0.5 (≈ 1.43 µM)

Test system: Acinetobacter baumannii
Experiment: Antibacterial activity against Acinetobacter baumannii ATCC BAA 1141 clinical isolates after 18 to 20 hrs in aerobic condition by CLSI-based broth microdilution assay
Type: functional
Conditions: not given

SMILES | MIC [µg/mL]
C/C(=N\NC(=N)N)c1cnn(-c2ccc(C#CC3CCCC3)cc2)c1C | 4 (≈ 11.5 µM)

Test system: Salmonella enterica
Experiment: Ratio of MBC to MIC for Salmonella enterica NR-170 clinical isolates
Type: functional
Conditions: not given

SMILES | Ratio
C/C(=N\NC(=N)N)c1cnn(-c2ccc(C#CC3CCCC3)cc2)c1C | >=1

Test system: Salmonella enteritidis
Experiment: Antibacterial activity against Salmonella enteritidis ATCC 14028 clinical isolates after 18 to 20 hrs in aerobic condition by CLSI-based broth microdilution assay
Type: functional, Salmonella enterica subsp. enterica serovar Enteritidis
Conditions: Salmonella enterica

SMILES | MIC [µg/mL]
C/C(=N\NC(=N)N)c1cnn(-c2ccc(C#CC3CCCC3)cc2)c1C | 8 (≈ 23 µM)

Test system: Acinetobacter baumannii
Experiment: Antibacterial activity against Acinetobacter baumannii ATCC 19606 clinical isolates after 18 to 20 hrs in aerobic condition by CLSI-based broth microdilution assay
Type: functional
Conditions: ATCC 19606 = CIP 70.34 = JCM 6841

SMILES | MIC [µg/mL]
C/C(=N\NC(=N)N)c1cnn(-c2ccc(C#CC3CCCC3)cc2)c1C | 4 (≈ 11.5 µM)

Test system: Acinetobacter baumannii
Experiment: Ratio of MBC to MIC for Acinetobacter baumannii NR 17786 clinical isolates
Type: functional
Conditions: not given

SMILES | Ratio
C/C(=N\NC(=N)N)c1cnn(-c2ccc(C#CC3CCCC3)cc2)c1C | >=1

Test system: Klebsiella pneumoniae
Experiment: Ratio of MBC to MIC for Klebsiella pneumoniae BAA-1706 after 18 to 20 hrs in aerobic condition by CLSI-based broth microdilution assay
Type: functional
Conditions: not given

SMILES | Ratio
C/C(=N\NC(=N)N)c1cnn(-c2ccc(C#CC3CCCC3)cc2)c1C | >=1

Test system: Klebsiella pneumoniae
Experiment: Antibacterial activity against Klebsiella pneumoniae BAA-1144 clinical isolates after 18 to 20 hrs in aerobic condition by CLSI-based broth microdilution assay
Type: functional
Conditions: not given

SMILES | MIC [µg/mL]
C/C(=N\NC(=N)N)c1cnn(-c2ccc(C#CC3CCCC3)cc2)c1C | 8 (≈ 23 µM)

Test system: Listeria monocytogenes
Experiment: Antibacterial activity against Listeria monocytogenes ATCC 19111 after 18 to 20 hrs in aerobic condition by CLSI-based broth microdilution assay
Type: functional
Conditions: not given

SMILES | MIC [µg/mL]
C/C(=N\NC(=N)N)c1cnn(-c2ccc(C#CC3CCCC3)cc2)c1C | 0.5 (≈ 1.43 µM)

Test system: Pseudomonas aeruginosa
Experiment: Ratio of MBC to MIC for Pseudomonas aeruginosa ATCC 25619 clinical isolates
Type: functional
Conditions: not given

SMILES | Ratio
C/C(=N\NC(=N)N)c1cnn(-c2ccc(C#CC3CCCC3)cc2)c1C | >=1

Test system: Staphylococcus aureus
Experiment: Ratio of MBC to MIC for Methicillin-sensitive Staphylococcus aureus NRS107 clinical isolates
Type: functional
Conditions: not given

SMILES | Ratio
C/C(=N\NC(=N)N)c1cnn(-c2ccc(C#CC3CCCC3)cc2)c1C | <=2

Test system: Acinetobacter baumannii
Experiment: Antibacterial activity against carbapenem-resistant Acinetobacter baumannii ATCC BAA 1605 clinical isolates after 18 to 20 hrs in aerobic condition by CLSI-based broth microdilution assay
Type: functional
Conditions: not given

SMILES | MIC [µg/mL]
C/C(=N\NC(=N)N)c1cnn(-c2ccc(C#CC3CCCC3)cc2)c1C | 8 (≈ 23 µM)

Test system: Shigella flexneri
Experiment: Antibacterial activity against Shigella flexneri ATCC 9199 clinical isolates after 18 to 20 hrs in aerobic condition by CLSI-based broth microdilution assay
Type: functional
Conditions: not given

SMILES | MIC [µg/mL]
C/C(=N\NC(=N)N)c1cnn(-c2ccc(C#CC3CCCC3)cc2)c1C | 8 (≈ 23 µM)

Test system: Salmonella typhimurium
Experiment: Antibacterial activity against Salmonella typhimurium ATCC 700720 after 18 to 20 hrs in aerobic condition by CLSI-based broth microdilution assay
Type: functional, Salmonella enterica subsp. enterica serovar Typhimurium
Conditions: Salmonella enterica

SMILES | MIC [µg/mL]
C/C(=N\NC(=N)N)c1cnn(-c2ccc(C#CC3CCCC3)cc2)c1C | 8 (≈ 23 µM)

Test system: Salmonella enteritidis
Experiment: Antibacterial activity against Salmonella enteritidis ATCC 13076 clinical isolates after 18 to 20 hrs in aerobic condition by CLSI-based broth microdilution assay
Type: functional, Salmonella enterica subsp. enterica serovar Enteritidis
Conditions: Salmonella enterica

SMILES | MIC [µg/mL]
C/C(=N\NC(=N)N)c1cnn(-c2ccc(C#CC3CCCC3)cc2)c1C | 4 (≈ 11.5 µM)

Test system: Staphylococcus aureus
Experiment: Antibacterial activity against Methicillin-resistant Staphylococcus aureus NRS385-USA500 clinical isolates after 18 to 20 hrs in aerobic condition by CLSI protocol based broth microdilution assay
Type: functional
Conditions: not given

SMILES | MIC [µg/mL]
C/C(=N\NC(=N)N)c1cnn(-c2ccc(C#CC3CCCC3)cc2)c1C | 0.5 (≈ 1.43 µM)

Test system: Staphylococcus aureus
Experiment: Antibacterial activity against vancomycin-resistant Staphylococcus aureus isolate 10 after 18 to 20 hrs in aerobic condition by CLSI-based broth microdilution assay
Type: functional
Conditions: not given

SMILES | MIC [µg/mL]
C/C(=N\NC(=N)N)c1cnn(-c2ccc(C#CC3CCCC3)cc2)c1C | 0.5 (≈ 1.43 µM)

Test system: Salmonella enteritidis
Experiment: Ratio of MBC to MIC for Salmonella enteritidis ATCC 13076 clinical isolates
Type: functional, Salmonella enterica subsp. enterica serovar Enteritidis
Conditions: not given

SMILES | Ratio
C/C(=N\NC(=N)N)c1cnn(-c2ccc(C#CC3CCCC3)cc2)c1C | >=1

Test system: Enterobacter cloacae subsp. cloacae
Experiment: Ratio of MBC to MIC for Enterobacter cloacae subsp. cloacae ATCC BAA-1143 clinical isolates
Type: functional
Conditions: not given

SMILES | Ratio
C/C(=N\NC(=N)N)c1cnn(-c2ccc(C#CC3CCCC3)cc2)c1C | > 1

Test system: Escherichia coli
Experiment: Antibacterial activity against Escherichia coli BW25113 clinical isolates after 18 to 20 hrs in aerobic condition by CLSI-based broth microdilution assay
Type: functional
Conditions: not given

SMILES | MIC [µg/mL]
C/C(=N\NC(=N)N)c1cnn(-c2ccc(C#CC3CCCC3)cc2)c1C | 8 (≈ 23 µM)

Test system: Acinetobacter baumannii
Experiment: Ratio of MBC to MIC for Acinetobacter baumannii NR 17785 clinical isolates
Type: functional
Conditions: not given

SMILES | Ratio
C/C(=N\NC(=N)N)c1cnn(-c2ccc(C#CC3CCCC3)cc2)c1C | >=1

Test system: Streptococcus pneumoniae
Experiment: Ratio of MBC to MIC for cephalosporin-resistant Streptococcus pneumoniae ATCC 51916 clinical isolates
Type: functional
Conditions: not given

SMILES | Ratio
C/C(=N\NC(=N)N)c1cnn(-c2ccc(C#CC3CCCC3)cc2)c1C | <3

Test system: Escherichia coli
Experiment: Inhibition of 6His tagged Escherichia coli UPPP expressed in Escherichia coli C41(DE3) cells preincubated for 15 mins followed by FPP substrate addition and measured after 20 mins by malachite green reagent based assay
Conditions: not given

SMILES | inhibition
C/C(=N\NC(=N)N)c1cnn(-c2ccc(C#CC3CCCC3)cc2)c1C | inactive

Test system: Escherichia coli
Experiment: Antibacterial activity against Escherichia coli ATCC 35150 clinical isolates after 18 to 20 hrs in aerobic condition by CLSI-based broth microdilution assay
Type: functional
Conditions: not given

SMILES | MIC [µg/mL]
C/C(=N\NC(=N)N)c1cnn(-c2ccc(C#CC3CCCC3)cc2)c1C | 4 (≈ 11.5 µM)

Test system: Acinetobacter baumannii
Experiment: Antibacterial activity against Acinetobacter baumannii NR 17785 clinical isolates after 18 to 20 hrs in aerobic condition by CLSI-based broth microdilution assay
Type: functional
Conditions: not given

SMILES | MIC [µg/mL]
C/C(=N\NC(=N)N)c1cnn(-c2ccc(C#CC3CCCC3)cc2)c1C | 4 (≈ 11.5 µM)

Test system: Staphylococcus epidermidis
Experiment: Antibacterial activity against Staphylococcus epidermidis NRS101 after 18 to 20 hrs in aerobic condition by CLSI-based broth microdilution assay
Type: functional
Conditions: not given

SMILES | MIC [µg/mL]
C/C(=N\NC(=N)N)c1cnn(-c2ccc(C#CC3CCCC3)cc2)c1C | 1 (≈ 2.87 µM)

Test system: Escherichia coli
Experiment: Antibacterial activity against carbapenem-resistant Escherichia coli BAA-2469 clinical isolates after 18 to 20 hrs in aerobic condition by CLSI-based broth microdilution assay
Type: functional
Conditions: not given

SMILES | MIC [µg/mL]
C/C(=N\NC(=N)N)c1cnn(-c2ccc(C#CC3CCCC3)cc2)c1C | 4 (≈ 11.5 µM)

Test system: Escherichia coli
Experiment: Ratio of MBC to MIC for Escherichia coli ATCC 25922 clinical isolates
Type: functional
Conditions: not given

SMILES | Ratio
C/C(=N\NC(=N)N)c1cnn(-c2ccc(C#CC3CCCC3)cc2)c1C | >=1

Test system: Pseudomonas aeruginosa
Experiment: microbe, parasite or virus in culture
Conditions: ATCC 9027
Description: Antibacterial activity against Pseudomonas aeruginosa ATCC 9027 clinical isolates after 18 to 20 hrs in aerobic condition by CLSI-based broth microdilution assay

SMILES | MIC [µg/mL]
C/C(=N\NC(=N)N)c1cnn(-c2ccc(C#CC3CCCC3)cc2)c1C | 16 (≈ 45.9 µM)

Test system: Escherichia coli
Experiment: Ratio of MBC to MIC for Escherichia coli ATCC 35150 clinical isolates
Type: functional
Conditions: not given

SMILES | Ratio
C/C(=N\NC(=N)N)c1cnn(-c2ccc(C#CC3CCCC3)cc2)c1C | >=1

Test system: Acinetobacter baumannii
Experiment: Ratio of MBC to MIC for Acinetobacter baumannii ATCC 19606 clinical isolates
Type: functional, ATCC 19606 = CIP 70.34 = JCM 6841
Conditions: not given

SMILES | Ratio
C/C(=N\NC(=N)N)c1cnn(-c2ccc(C#CC3CCCC3)cc2)c1C | >=1

Test system: Enterococcus faecalis
Experiment: Antibacterial activity against vancomycin-resistant Enterococcus faecalis ATCC 51299 clinical isolates after 18 to 20 hrs in aerobic condition by CLSI-based broth microdilution assay
Type: functional
Conditions: not given

SMILES | MIC [µg/mL]
C/C(=N\NC(=N)N)c1cnn(-c2ccc(C#CC3CCCC3)cc2)c1C | 0.5 (≈ 1.43 µM)

Test system: Salmonella typhimurium
Experiment: Ratio of MBC to MIC for Salmonella typhimurium ATCC 700720 clinical isolates
Type: functional, Salmonella enterica subsp. enterica serovar Typhimurium
Conditions: not given

SMILES | Ratio
C/C(=N\NC(=N)N)c1cnn(-c2ccc(C#CC3CCCC3)cc2)c1C | >=1
